Test results as given in the supplement of paper PMC10883282.

What was measured:
Assay in all cases: relative viability vs DMSO control (72 h) (fraction); higher = more viable cells
A204 = system: A204
In short: (§1)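 Sarcoma cell lines went into 384-well plates at densities chosen to reach 80–90% confluence. After 24 h, each well received 2.5 µl of serially diluted compound, with source plates running from 10 mM to 0.0002 mM, and the plates were kept 72 h at 37 °C, 5% CO2, alongside 0.1% DMSO vehicle and a 5 µM positive control. Relative viability was derived from ATPLite readings as percent growth and averaged over up to triplicate wells. The data were then rescaled so that 1 stands for full and 0 for none.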

HS729 = system: HS729
In short: as §1

KHOS-240S = system: KHOS-240S
In short: as §1

SW982 = system: SW982
In short: as §1

SYO-1 = system: SYO-1
In short: as §1

CNC(=O)c1ccccc1Sc1ccc2c(/C=C/c3ccccn3)n[nH]c2c1 [Axitinib]
relative viability
Conditions | A204 | HS729 | KHOS-240S | SW982 | SYO-1
0.00017 µM | 1.04 | 1.09 | 1.05 | 0.998 | 1
0.00051 µM | 1.07 | 1.03 | 1.02 | 0.997 | 0.973
0.00152 µM | 1.03 | 1.04 | 1.04 | 1 | 0.9673
0.00457 µM | 0.942 | 0.987 | 1.05 | 1.02 | 0.913
0.01372 µM | 0.77 | 0.909 | 1.02 | 0.991 | 0.841
0.04115 µM | 0.484 | 0.916 | 1.01 | 1.015 | 0.742
0.1235 µM | 0.405 | 0.929 | 0.964 | 0.9984 | 0.662
0.3704 µM | 0.359 | 0.861 | 0.802 | 0.96 | 0.485
1.111 µM | 0.289 | 0.698 | 0.791 | 0.922 | 0.422
3.333 µM | 0.159 | 0.271 | 0.495 | 0.409 | 0.141
10 µM | 0.0338 | 0.111 | 0.214 | 0.0993 | 0.0669

Cc1cc2c(F)c(Oc3ncnn4cc(OC[C@@H](C)O)c(C)c34)ccc2[nH]1 [Brivanib]
relative viability
Conditions | A204 | HS729 | KHOS-240S | SW982 | SYO-1
0.00017 µM | 1.05 | 0.93 | 1.04 | 1.03 | 0.941
0.00051 µM | 1.035 | 0.949 | 1.035 | 1.03 | 0.936
0.00152 µM | 1.02 | 0.955 | 1.03 | 1.05 | 0.931
0.00457 µM | 1.07 | 0.943 | 1.05 | 1.07 | 0.935
0.01372 µM | 1.06 | 0.929 | 1.05 | 1.05 | 0.919
0.04115 µM | 1.03 | 0.912 | 1.04 | 1.05 | 0.925
0.1235 µM | 1.01 | 0.925 | 1.04 | 1.035 | 0.921
0.3704 µM | 1.01 | 0.964 | 1.05 | 1.06 | 0.906
1.111 µM | 0.987 | 0.963 | 1.03 | 1.034 | 0.861
3.333 µM | 0.95 | 0.921 | 1.041 | 1.07 | 0.792
10 µM | 0.642 | 0.856 | 0.961 | 1.06 | 0.609

CO[C@H]1C[C@@H]2CC[C@@H](C)[C@@](O)(O2)C(=O)C(=O)N2CCCC[C@H]2C(=O)O[C@H]([C@H](C)C[C@@H]2CC[C@@H](OCCO)[C@H](OC)C2)CC(=O)[C@H](C)/C=C(\C)[C@@H](O)[C@@H](OC)C(=O)[C@H](C)C[C@H](C)/C=C/C=C/C=C/1C [Certican]
relative viability
Conditions | A204 | HS729 | KHOS-240S | SW982 | SYO-1
0.00017 µM | 0.919 | 0.907 | 1.05 | 1 | 0.904
0.00051 µM | 0.793 | 0.943 | 1.01 | 0.882 | 0.876
0.00152 µM | 0.657 | 0.896 | 0.935 | 0.79 | 0.852
0.00457 µM | 0.619 | 0.835 | 0.889 | 0.756 | 0.84
0.01372 µM | 0.591 | 0.903 | 0.851 | 0.728 | 0.808
0.04115 µM | 0.517 | 0.829 | 0.845 | 0.68 | 0.788
0.1235 µM | 0.498 | 0.828 | 0.815 | 0.679 | 0.755
0.3704 µM | 0.485 | 0.808 | 0.786 | 0.645 | 0.755
1.111 µM | 0.487 | 0.821 | 0.784 | 0.618 | 0.729
3.333 µM | 0.45 | 0.828 | 0.75 | 0.599 | 0.738
10 µM | 0.43 | 0.891 | 0.717 | 0.604 | 0.742

CC1(COc2ccc3c(c2)ncn3-c2ccc3cccc(N4CCC(N)CC4)c3n2)COC1 [Crenolanib]
relative viability
Conditions | A204 | HS729 | KHOS-240S | SW982 | SYO-1
0.00017 µM | 1.085 | 0.96 | 0.97 | 0.937 | 0.974
0.00051 µM | 1.07 | 0.973 | 0.957 | 0.9575 | 0.983
0.00152 µM | 1.08 | 1.03 | 1.01 | 0.947 | 0.996
0.00457 µM | 1.05 | 0.992 | 1.02 | 0.974 | 0.998
0.01372 µM | 1.01 | 1.01 | 1.01 | 0.965 | 0.953
0.04115 µM | 0.819 | 0.98 | 1.023 | 0.971 | 0.867
0.1235 µM | 0.594 | 0.97 | 0.986 | 0.969 | 0.785
0.3704 µM | 0.457 | 1.01 | 0.963 | 0.952 | 0.787
1.111 µM | 0.403 | 1.034 | 0.844 | 0.679 | 0.659
3.333 µM | 0.326 | 0.983 | 0.476 | 0.352 | 0.307
10 µM | 0.016 | 0.901 | 0.134 | 0.0115 | -0.023
